Assay results: ChEMBL document CHEMBL1201862, “PubChem BioAssay data set” (2004)
Calls of active or inactive are those of the source.

How the values were obtained:
[1] = molecular target: T1, Hexokinase HKDC1 (Homo sapiens, UniProt Q2TB90); experiment: HKDC1 hexokinase activators, dose response, biochemical, W721R variant (AID 504730); assay type: functional
T1 sequence (Q2TB90 whole entry): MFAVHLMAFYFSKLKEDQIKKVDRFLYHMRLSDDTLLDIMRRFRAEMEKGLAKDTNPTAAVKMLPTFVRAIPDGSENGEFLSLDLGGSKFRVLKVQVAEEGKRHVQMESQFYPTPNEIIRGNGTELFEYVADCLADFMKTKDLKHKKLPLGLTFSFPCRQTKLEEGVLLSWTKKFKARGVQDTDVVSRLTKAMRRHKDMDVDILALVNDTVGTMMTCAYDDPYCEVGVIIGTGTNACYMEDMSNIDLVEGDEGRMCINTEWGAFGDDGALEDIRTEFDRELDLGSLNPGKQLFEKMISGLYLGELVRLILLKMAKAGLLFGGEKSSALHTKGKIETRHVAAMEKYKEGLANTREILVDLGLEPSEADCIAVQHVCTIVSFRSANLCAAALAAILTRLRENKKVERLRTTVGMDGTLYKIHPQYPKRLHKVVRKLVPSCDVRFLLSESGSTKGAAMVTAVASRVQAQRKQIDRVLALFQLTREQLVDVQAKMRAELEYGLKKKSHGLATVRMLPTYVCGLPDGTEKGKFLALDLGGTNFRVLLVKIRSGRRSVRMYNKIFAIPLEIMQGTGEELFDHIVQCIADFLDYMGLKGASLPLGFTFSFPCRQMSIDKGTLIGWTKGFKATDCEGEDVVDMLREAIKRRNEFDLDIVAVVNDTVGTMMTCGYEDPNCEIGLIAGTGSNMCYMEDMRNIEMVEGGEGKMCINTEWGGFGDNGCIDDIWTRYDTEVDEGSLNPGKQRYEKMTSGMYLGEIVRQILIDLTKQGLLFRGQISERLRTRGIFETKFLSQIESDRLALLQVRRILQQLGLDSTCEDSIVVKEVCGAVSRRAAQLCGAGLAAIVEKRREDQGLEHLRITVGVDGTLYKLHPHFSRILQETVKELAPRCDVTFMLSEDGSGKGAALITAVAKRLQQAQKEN

[2] = molecular target: Nonstructural protein 1 (Influenza A virus, UniProt Q194T2); assay type: functional, Influenza A virus (A/California/07/2009(H1N1))
Nonstructural protein 1, sequence (Q194T2 whole entry): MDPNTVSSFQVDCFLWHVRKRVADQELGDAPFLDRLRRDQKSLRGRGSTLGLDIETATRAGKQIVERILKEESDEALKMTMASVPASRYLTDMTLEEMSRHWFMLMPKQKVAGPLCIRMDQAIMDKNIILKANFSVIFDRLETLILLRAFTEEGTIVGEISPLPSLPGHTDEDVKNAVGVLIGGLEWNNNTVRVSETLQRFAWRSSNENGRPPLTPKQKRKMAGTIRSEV

[3] = molecular target: Hexokinase-1 (Homo sapiens, UniProt P19367); experiment: hexokinase 1 activators, dose response, selectivity assay for HKDC1 activator project, biochemical (AID 504762); assay type: functional
Hexokinase-1, sequence (P19367 whole entry): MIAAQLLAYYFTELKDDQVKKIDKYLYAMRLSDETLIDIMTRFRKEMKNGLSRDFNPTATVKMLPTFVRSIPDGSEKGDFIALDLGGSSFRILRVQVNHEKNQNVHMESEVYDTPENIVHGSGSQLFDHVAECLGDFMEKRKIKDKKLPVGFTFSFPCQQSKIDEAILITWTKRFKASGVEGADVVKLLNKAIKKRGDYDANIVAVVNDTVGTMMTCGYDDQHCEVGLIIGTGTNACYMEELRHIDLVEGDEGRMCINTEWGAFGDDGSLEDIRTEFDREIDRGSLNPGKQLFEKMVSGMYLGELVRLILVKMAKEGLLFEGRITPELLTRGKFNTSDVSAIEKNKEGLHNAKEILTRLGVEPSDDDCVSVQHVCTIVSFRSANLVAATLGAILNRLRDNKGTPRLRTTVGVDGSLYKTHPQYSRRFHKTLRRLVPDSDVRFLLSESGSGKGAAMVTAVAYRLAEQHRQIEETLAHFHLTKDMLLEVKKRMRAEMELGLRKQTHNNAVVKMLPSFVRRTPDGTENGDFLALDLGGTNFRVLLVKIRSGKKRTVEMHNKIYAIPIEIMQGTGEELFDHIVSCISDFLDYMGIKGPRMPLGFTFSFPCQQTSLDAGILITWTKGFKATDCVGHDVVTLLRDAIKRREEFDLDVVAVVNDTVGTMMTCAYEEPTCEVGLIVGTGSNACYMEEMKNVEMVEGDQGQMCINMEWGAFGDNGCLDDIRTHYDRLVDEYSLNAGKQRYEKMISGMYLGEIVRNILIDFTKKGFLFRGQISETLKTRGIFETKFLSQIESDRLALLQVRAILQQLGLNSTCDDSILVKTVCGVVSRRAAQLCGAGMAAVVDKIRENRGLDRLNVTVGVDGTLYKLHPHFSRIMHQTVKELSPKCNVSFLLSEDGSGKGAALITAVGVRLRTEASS

[4] = system: INS1; experiment: beta cell apoptosis inhibitors, cytokine rescue, dose response, luminescence, retest (AID 449756); assay type: functional, cell-based; conditions: Rattus norvegicus;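 also: cell death triggered by IL-1 beta plus TNF-alpha plus IFN-gamma mixture; protective hits raise ATP signal compared with cytokine alone wells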
[5] = molecular target: Phosphomannomutase 2 (Homo sapiens, UniProt O15305); experiment: Counter screen SAR assay for PMM2 inhibitors via a fluorescence intensity assay. [Related pubchem assays (depositor defined):AID1545, AID1574]
Phosphomannomutase 2, sequence (O15305 whole entry): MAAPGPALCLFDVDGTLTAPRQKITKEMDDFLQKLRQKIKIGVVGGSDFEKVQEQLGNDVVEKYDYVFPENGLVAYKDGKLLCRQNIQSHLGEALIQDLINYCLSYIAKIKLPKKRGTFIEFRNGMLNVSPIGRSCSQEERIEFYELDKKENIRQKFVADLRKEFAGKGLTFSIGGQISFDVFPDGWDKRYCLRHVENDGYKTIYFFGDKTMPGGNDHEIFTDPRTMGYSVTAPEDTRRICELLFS

[6] = molecular target: T2, Heat shock factor protein 1 (Mus musculus, UniProt P38532); experiment: HSF1 potentiators in luciferase reporter cells, confirmation, cell-based, NIH3T3, luminescence, dose retest (AID 435004); assay type: functional;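 also: stress induced by proteasome inhibitor MG132 added 30 min after compound; luciferase reporter driven by HSF1 response element in NIH3T3 cells; actives raise luminescence as potentiators of the MG132 stress response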
T2 sequence (P38532 whole entry): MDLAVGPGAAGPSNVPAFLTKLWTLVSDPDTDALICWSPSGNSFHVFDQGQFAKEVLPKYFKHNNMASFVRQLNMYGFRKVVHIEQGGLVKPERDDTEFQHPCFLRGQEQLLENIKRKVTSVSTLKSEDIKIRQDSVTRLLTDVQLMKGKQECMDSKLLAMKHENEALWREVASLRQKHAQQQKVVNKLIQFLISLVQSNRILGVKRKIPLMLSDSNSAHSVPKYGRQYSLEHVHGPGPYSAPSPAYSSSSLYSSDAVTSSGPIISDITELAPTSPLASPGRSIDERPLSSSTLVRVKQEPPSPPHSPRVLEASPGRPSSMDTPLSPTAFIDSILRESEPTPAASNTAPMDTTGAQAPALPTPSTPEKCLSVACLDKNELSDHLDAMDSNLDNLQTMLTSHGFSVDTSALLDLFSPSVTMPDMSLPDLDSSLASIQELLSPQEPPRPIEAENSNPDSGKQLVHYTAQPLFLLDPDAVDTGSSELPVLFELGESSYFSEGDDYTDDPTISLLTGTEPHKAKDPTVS

[7] = molecular target: X-box-binding protein 1 (Homo sapiens, UniProt P17861); assay type: functional, Cricetulus griseus;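 also: confirmatory dose-response counter-screen serving a CHOP assay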
X-box-binding protein 1, sequence (P17861 whole entry): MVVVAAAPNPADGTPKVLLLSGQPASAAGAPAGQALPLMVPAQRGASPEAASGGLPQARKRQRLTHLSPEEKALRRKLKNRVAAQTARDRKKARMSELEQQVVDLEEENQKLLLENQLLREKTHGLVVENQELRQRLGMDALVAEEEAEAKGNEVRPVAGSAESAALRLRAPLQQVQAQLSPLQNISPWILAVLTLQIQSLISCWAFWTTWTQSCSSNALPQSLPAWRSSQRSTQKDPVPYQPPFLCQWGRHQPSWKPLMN

[8] = molecular target: Paired box protein Pax-8 (Homo sapiens, UniProt Q06710); experiment: inhibitors of PAX8-driven TPO luciferase reporter, dose response, RMG-I cells, cherry-pick (AID 687027); assay type: functional, cell-based;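 also: luciferase reporter driven by Pax8 target thyroperoxidase promoter measured by SteadyGlo luminescence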
[9] = molecular target: SUMO-activating enzyme (Homo sapiens, UniProt Q9UBT2); experiment: SUMOylation inhibitor hit validation, confirmation, SUMOylation inhibitor project, biochemical, AlphaScreen (AID 2018); assay type: functional
SUMO-activating enzyme, sequence (Q9UBE0 whole entry): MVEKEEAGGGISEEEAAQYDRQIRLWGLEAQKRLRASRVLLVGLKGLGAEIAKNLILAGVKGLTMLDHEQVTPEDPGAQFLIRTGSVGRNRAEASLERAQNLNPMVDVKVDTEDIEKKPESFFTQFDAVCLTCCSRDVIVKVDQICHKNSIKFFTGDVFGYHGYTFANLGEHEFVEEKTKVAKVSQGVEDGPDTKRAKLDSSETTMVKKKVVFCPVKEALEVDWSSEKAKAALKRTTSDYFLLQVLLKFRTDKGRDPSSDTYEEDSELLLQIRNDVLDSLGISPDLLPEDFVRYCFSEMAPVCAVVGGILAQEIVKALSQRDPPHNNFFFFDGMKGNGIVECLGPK
SUMO-activating enzyme, sequence (Q9UBT2 whole entry): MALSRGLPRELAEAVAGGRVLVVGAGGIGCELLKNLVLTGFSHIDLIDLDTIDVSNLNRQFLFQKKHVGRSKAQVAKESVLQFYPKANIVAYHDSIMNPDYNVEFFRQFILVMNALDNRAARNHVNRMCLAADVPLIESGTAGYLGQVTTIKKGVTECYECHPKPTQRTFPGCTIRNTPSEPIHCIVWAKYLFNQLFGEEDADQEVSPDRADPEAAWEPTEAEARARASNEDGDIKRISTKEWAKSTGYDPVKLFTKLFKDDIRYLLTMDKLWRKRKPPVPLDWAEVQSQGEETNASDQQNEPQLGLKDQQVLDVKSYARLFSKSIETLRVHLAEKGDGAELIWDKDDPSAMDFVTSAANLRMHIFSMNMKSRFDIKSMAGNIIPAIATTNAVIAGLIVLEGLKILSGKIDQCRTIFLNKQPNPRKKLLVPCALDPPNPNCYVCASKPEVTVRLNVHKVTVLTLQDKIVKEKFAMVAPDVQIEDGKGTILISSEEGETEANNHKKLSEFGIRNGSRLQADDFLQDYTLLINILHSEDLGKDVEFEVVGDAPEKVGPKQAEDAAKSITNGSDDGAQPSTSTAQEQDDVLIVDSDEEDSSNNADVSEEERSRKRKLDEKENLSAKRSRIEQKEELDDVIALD

[10] = molecular target: T3, Mannose-6-phosphate isomerase (Homo sapiens, UniProt P34949); experiment: human PMI inhibitors, high substrate, primary screen, biochemical, fluorescence intensity, high mannose 6-phosphate (AID 1220)
T3 sequence (P34949 whole entry): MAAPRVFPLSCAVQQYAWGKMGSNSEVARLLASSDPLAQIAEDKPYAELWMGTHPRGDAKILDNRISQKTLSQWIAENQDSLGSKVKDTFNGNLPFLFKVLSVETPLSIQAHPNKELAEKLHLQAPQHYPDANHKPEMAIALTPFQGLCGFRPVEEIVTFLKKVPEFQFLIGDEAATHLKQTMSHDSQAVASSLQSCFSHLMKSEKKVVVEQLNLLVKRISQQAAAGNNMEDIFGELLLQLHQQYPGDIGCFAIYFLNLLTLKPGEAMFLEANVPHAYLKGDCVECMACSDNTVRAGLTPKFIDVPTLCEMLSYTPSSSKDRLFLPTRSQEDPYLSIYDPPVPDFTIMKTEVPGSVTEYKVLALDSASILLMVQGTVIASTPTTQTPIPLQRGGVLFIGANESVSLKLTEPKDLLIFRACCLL

[11] = inhibitors of intracellular T. cruzi replication, confirmation, NIH3T3 host cells, beta-gal luminescence (AID 2044); assay type: functional, cell-based;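 also: intracellular parasites grown in NIH/3T3 mouse fibroblasts as host cells; luminescent beta-galactosidase reporter signal from transgenic T. cruzi replicating inside host cells; inhibitors lower the luminescence signal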
[12] = system: CHO-K1; experiment: (§1) Counterscreen for antagonists of the orexin 1 receptor (OX1R; HCRTR1): Homogeneous time resolved fluorescence (HTRF)-based cell-based dose response assay to identify antagonists of the parental CHO-K1 cell line. [Related pubchem assays (depositor defined):AID434989, AID435008, AID463079, AID485270, AID492963, AID492964, AID492965, AID493232, AID504699, AID504701]; assay type: functional; conditions: Cricetulus griseus
[13] = as §1, with “Fluorescence-based” for “Homogeneous time resolved fluorescence (HTRF)-based”, “cell-based high throughput” for “cell-based”, “CHO” for “CHO-K1”; assay type: functional
[14] = molecular target: T4, Orexin/Hypocretin receptor type 1 (Homo sapiens, UniProt O43613); experiment: Homogeneous Time Resolved Fluorescence (HTRF)-based cell-based high throughput dose response assay for antagonists of the orexin 1 receptor (OX1R; HCRTR1). [Related pubchem assays (depositor defined):AID434989, AID435008, AID463079, AID485270, AID492963, AID492964, AID492965, AID493232, AID504717, AID504718]; assay type: functional
T4 sequence (O43613 whole entry): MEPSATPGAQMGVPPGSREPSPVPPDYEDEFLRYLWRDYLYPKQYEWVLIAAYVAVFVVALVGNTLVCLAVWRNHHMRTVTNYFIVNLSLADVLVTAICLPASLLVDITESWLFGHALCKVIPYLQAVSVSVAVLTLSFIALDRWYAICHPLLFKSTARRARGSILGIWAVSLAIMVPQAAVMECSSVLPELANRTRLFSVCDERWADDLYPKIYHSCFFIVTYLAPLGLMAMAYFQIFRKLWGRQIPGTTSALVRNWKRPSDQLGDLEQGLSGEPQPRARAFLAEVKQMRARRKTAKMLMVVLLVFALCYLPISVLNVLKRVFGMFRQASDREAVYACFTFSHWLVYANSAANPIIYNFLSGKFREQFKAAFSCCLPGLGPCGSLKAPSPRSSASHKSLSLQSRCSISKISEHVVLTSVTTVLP

[15] = molecular target: T4, Orexin/Hypocretin receptor type 1; experiment: Fluorescence-based cell-based high throughput dose response assay for antagonists of the orexin 1 receptor (OX1R; HCRTR1). [Related pubchem assays (depositor defined):AID434989, AID435008, AID463079, AID485270, AID492963, AID492964, AID492965, AID493232, AID504717, AID504718]; assay type: functional
[16] = molecular target: Cytochrome P450 2D6 (Homo sapiens, UniProt P10635);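 also: CYP2D6 member of a cytochrome P450 panel assay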
Cytochrome P450 2D6, sequence (P10635 whole entry): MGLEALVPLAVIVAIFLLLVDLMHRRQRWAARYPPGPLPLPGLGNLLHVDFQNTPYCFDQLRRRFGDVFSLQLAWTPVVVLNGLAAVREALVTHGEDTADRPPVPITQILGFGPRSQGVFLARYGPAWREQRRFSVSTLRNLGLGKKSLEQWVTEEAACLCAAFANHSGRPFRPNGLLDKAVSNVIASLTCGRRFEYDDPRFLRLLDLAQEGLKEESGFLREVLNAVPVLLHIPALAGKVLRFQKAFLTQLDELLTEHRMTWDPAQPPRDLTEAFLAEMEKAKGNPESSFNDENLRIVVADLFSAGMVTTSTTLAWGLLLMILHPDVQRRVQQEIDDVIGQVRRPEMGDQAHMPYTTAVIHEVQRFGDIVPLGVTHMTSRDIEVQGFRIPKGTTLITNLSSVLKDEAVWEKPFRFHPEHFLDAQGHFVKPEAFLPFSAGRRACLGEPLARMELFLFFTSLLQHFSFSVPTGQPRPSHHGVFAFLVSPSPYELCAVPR

[17] = molecular target: T5, Tyrosine-protein phosphatase non-receptor type 7 (Homo sapiens, UniProt P35236); assay type: functional
T5 sequence (P35236 whole entry): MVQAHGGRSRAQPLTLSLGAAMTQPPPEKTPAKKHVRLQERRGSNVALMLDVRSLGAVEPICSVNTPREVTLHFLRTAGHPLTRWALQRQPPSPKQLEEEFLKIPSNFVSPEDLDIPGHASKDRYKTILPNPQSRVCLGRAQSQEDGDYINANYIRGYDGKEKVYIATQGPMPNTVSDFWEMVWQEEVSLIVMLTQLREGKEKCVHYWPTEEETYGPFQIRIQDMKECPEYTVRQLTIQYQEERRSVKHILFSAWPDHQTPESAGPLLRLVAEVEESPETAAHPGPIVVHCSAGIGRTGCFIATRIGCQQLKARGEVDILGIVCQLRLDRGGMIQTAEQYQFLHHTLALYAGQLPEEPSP

[18] = molecular target: T6, Tyrosine-protein phosphatase non-receptor type 22 (Homo sapiens, UniProt Q9Y2R2); assay type: functional
T6 sequence (Q9Y2R2 whole entry): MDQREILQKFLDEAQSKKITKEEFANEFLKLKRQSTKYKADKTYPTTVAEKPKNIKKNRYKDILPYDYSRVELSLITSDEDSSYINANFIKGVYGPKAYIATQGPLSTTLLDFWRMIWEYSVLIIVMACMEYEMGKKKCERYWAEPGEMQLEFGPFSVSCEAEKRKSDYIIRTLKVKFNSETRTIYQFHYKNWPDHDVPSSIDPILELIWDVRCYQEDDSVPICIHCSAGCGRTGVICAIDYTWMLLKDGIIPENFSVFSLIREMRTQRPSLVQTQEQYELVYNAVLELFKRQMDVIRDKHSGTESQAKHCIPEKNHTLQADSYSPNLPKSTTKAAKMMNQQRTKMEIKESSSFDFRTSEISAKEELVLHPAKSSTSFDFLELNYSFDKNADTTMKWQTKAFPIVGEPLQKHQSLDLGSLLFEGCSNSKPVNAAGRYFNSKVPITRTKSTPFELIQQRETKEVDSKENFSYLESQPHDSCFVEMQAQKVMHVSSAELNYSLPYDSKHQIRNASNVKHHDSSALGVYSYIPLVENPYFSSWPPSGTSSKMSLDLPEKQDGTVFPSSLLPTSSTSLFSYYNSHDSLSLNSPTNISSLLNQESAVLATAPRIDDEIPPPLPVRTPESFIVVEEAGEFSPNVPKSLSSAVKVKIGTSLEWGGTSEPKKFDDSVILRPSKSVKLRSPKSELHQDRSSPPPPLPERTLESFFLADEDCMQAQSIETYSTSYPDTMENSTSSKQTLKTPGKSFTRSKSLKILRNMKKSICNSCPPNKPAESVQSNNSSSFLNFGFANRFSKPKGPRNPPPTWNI

[19] = molecular target: T6, Tyrosine-protein phosphatase non-receptor type 22; assay type: functional; remark: listed apart in the source
[20] = molecular target: T7, Delta-type opioid receptor (Homo sapiens, UniProt P41143); experiment: HTS Image-Based Screen for Antagonists of the DOR Receptor. [Related pubchem assays (depositor defined):AID1777, AID1785, AID1786, AID2133]; assay type: functional
T7 sequence (P41143 whole entry): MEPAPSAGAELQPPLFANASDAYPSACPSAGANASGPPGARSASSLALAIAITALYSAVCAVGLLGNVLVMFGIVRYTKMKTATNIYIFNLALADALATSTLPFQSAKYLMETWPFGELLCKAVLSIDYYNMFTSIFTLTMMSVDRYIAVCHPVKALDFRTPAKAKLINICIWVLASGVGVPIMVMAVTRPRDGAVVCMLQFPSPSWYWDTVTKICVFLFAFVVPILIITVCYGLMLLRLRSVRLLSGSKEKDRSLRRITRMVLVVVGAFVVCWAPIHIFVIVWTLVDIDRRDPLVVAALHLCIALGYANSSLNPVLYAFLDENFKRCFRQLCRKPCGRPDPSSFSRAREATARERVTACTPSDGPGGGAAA

[21] = molecular target: Mu-type opioid receptor (Homo sapiens, UniProt P35372); experiment: HTS Image-Based Screen for Agonists of the MOR Receptor. [Related pubchem assays (depositor defined):AID1777, AID1785, AID1786, AID2133]; assay type: functional;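 also: imaging of beta-arrestin GFP recruitment into spots after receptor activation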
[22] = molecular target: T7, Delta-type opioid receptor; experiment: HTS Image-Based Screen for Agonists of the DOR Receptor. [Related pubchem assays (depositor defined):AID1777, AID1786, AID2133]; assay type: functional
[23] = molecular target: T8, Kappa-type opioid receptor (Homo sapiens, UniProt P41145); assay type: functional
T8 sequence (P41145 whole entry): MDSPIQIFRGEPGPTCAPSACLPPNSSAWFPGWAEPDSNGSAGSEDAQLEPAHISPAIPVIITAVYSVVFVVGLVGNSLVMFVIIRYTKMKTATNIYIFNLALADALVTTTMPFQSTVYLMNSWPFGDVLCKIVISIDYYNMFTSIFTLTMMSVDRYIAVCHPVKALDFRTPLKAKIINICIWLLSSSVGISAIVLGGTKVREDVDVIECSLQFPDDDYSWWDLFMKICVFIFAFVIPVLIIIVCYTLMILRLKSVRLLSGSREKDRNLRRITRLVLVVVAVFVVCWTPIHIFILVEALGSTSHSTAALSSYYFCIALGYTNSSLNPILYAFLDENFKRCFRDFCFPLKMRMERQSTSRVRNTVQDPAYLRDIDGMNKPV

[24] = molecular target: Beta-galactosidase (Escherichia coli, UniProt Q8VNN2); assay type: functional
Beta-galactosidase, sequence (Q8VNN2 whole entry): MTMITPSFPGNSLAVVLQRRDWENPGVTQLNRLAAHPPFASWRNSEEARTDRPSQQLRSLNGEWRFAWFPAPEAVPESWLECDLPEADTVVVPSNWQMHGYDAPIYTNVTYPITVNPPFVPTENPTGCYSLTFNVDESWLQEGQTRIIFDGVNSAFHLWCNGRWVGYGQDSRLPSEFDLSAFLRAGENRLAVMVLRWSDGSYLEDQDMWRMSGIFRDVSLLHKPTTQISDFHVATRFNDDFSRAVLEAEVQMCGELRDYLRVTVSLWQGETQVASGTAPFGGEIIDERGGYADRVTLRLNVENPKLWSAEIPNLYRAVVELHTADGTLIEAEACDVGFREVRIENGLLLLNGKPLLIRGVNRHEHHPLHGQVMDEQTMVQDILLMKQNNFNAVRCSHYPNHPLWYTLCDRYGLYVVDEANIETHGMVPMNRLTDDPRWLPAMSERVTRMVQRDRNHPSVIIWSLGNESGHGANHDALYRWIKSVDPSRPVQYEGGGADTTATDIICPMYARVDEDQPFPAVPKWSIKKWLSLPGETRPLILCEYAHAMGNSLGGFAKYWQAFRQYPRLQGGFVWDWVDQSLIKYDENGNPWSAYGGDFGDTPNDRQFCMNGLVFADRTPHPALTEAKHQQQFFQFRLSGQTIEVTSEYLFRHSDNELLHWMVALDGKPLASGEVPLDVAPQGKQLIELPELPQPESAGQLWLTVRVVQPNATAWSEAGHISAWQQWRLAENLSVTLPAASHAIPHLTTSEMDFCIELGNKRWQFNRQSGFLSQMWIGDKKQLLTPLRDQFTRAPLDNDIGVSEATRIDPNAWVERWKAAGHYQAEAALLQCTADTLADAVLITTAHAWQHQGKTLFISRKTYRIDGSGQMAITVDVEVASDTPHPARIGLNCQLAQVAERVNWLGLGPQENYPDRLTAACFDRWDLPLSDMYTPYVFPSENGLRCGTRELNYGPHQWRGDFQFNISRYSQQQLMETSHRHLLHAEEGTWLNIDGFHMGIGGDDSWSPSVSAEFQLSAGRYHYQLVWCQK

[25] = molecular target: T8, Kappa-type opioid receptor; assay type: functional; remark: listed apart in the source

O=C(NC(=S)NNC(=O)c1cnccn1)c1ccc(F)cc1
EC50 [1]: 14.5 µM (active)
IC50 [2]: 2.95 µM (active)
EC50 [3]: > 80 µM (inactive)
AC50 [4]: 0.889 µM (active)

CSc1nc(-c2ccccc2)nc(C(Cl)Cl)n1
IC50 [5]: > 100 µM (inactive)
EC50 [6]: 2.7 µM (active)
Absolute IC50 (XBP1) [7]: 10 µM
AC50 [4]: 3.69 µM (active)
AC50 [8]: 2.26 µM (active)

COc1ccc(-c2nc3c(c(=O)n(C)c(=O)n3C)n2CC2CC(c3ccccc3)=NO2)cc1OC (stereo not drawn)
EC50 [1]: 33.4 µM (inactive)
EC50 [3]: 35.1 µM (inactive)

C/C(=N\NC(=O)CNc1cccc2ccccc12)c1ccccc1
IC50 [9]: > 100 µM (inactive)
IC50 [10]: > 50 µM (not active)

NC(=S)N/N=C/c1ccccc1OCc1cccc(Cl)c1
EC50 [11]: 0.323 µM (active)
IC50 [12]: > 66.2 µM (inactive)
IC50 [13]: > 49.7 µM (inactive)
IC50 [14]: 2.71 µM (active)
IC50 [15]: 7.74 µM (active)
AC50 [16]: inconclusive

O=C(Nc1nccs1)c1ccc(S(=O)(=O)NCc2cccs2)cc1
IC50 [17]: > 79.4 µM (inactive)
IC50 [18]: > 79.4 µM (inactive)
IC50 [19]: > 79.4 µM (inactive)

COc1ccc(N2CCN(CCCNC(=O)C(=O)c3c(C)n(C)c4ccccc34)CC2)cc1
IC50 [20]: > 32 µM (inactive)
EC50 [21]: > 32 µM (inactive)
EC50 [22]: > 32 µM (inactive)
IC50 [23]: 18.3 µM (active)
EC50 [24]: > 31.5 µM (inactive)
IC50 [25]: 6.16 µM
